According to patent US6790951B1, “Expression system in microorganism and its use for expressing heterologous and homologous proteins” (priority 1995, dated 2004):
Ends that are not written are not given here.

Legend:
[1] = tested on: Lactobacillus plantarum C11; test: Induction of bacteriocin production / gene expression in Lactobacillus plantarum C11; format: cell-based
Procedure: Experiments similar to the ones described in examples 1 and 2 were conducted with the bacteriocin producing strain Lactobacillus plantarum C11. These experiments yielded results that were essentially similar to the results described in examples 1 and 2. The sequence of the amphiphilic inducing peptide for the Lactobacillus plantarum C11 regulatory system is: […](26 residues) (SEQ. ID. NO: 1).
Observations essentially similar to the ones described by examples 1,2, and 4 have been made in relation to bacteriocin production by Lactobacillus plantarum C11. This strain produces a large number of bacteriocins, corresponding immunity proteins, and the 26-residue inducing peptide described in example 3. The corresponding genes have been cloned and sequenced. […] Promoter elements in front of the transcription start-points resemble those found in front of the genes involved in sakacin P production, as indicated in FIG. 4.
A 26-residue peptide (SEQ ID NO:1) with the sequence given in example 3 was synthesized.

[2] = tested on: Lactobacillus sake LTH673; test: Induction or maintenance of bacteriocin (sakacin P) production, inducing-peptide production and immunity in Lactobacillus sake LTH673 cultures; format: cell-based; details: for induction of immunity to sakacin P / induction of production of the inducing peptide itself: added to Bac- Lactobacillus sake LTH673 cells; for induction of bacteriocin (sakacin P) production: added to Bac- Lactobacillus sake LTH673 cultures
Excerpt: This bacteriocin was later shown to be sakacin P (ref. 8). Bacterial cultures obtained by inoculating MRS medium (Difco Laboratories, Detroit, Mich., USA; or Oxoid ltd. Basingstoke, Hampshire, England) with material from this glycerol-stock produced sakacin P (Bac^+ phenotype) and, accordingly, were immune to purified sakacin P.
(§1) The Bac^+ phenotype of cells in this bacterial culture was lost upon diluting a Bac^+ LTH673 culture more than ˜2000-fold in fresh MRS-medium. […] Loss of the Bac^+ phenotype upon dilution or plating could be prevented by adding supernatant of an overnight Bac^+ LTH673 culture at an end concentration of minimally 0.05% (v/v). […] Colonies obtained after plating cells from a Bac^− culture in the presence of supernatant from a Bac^+ culture all were Bac^+.
As indicated above Bac^− colonies of Lactobacillus sake LTH673 were obtained after plating cells from a Bac^+ culture. […] Glycerol stocks of such Bac^− cultures were made and fresh cultures obtained after inoculating MRS medium with an inoculum from such a glycerol stock again were Bac^−. In all cases tested, the only way to restore bacteriocin production was to add supernatant of a Bac^+ culture that thus, apparently, contains an inducing substance.
Lb. sake LTH673 (Bac^+) is immune to purified sakacin P and to several related purified bacteriocins. Immunity is caused by a specific protein that is produced concomitantly with the bacteriocin. Accordingly, we observed that the loss and induction of the Bac^+ phenotype was invariably accompanied by, respectively, the loss and induction of immunity to sakacin P. Another trait invariably linked to changes in the Bac phenotype was the inducing capacity itself: this capacity was only present in supernatants of Bac^+ cultures but not in the supernatants of Bac^− cultures.

[3] = tested on: genes involved in sakacin P production (FIG. 1) in Lactobacillus sake LTH673; test: Northern blotting of transcripts of the sakacin P genes in Bac- LTH673 cultures after adding the peptide; format: cell-based; details: purified or synthetic peptide
Excerpt: 5. In bacteriocin deficient cultures of LTH673, transcription of the genes depicted in FIG. 1 could not be detected (by Northern blotting).
In cultures of Lactobacillus sake LTH673 with the Bac^− phenotype, transcription of the genes depicted in FIG. 1 could not be detected at any stage during growth (by Northern blotting).

[4] = Stability of the inducing component of culture medium to proteinase K and boiling; format: physicochemical
Excerpt: as §1

| Sequence | induction of gene expression (bacteriocin, immunity and inducing peptide genes) ([1]; Bac- cultures of Lactobacillus plantarum C11) | inducing effects of the synthetic peptide compared with Bac+ culture supernatants and the purified peptide ([1]; synthetic peptide, in Lactobacillus plantarum C11) | induction of immunity to sakacin P [2] | induction of production of the inducing peptide itself [2] | induction of immunity to sakacin P ([2]; listed as purified peptide) | induction of production of the inducing peptide itself ([2]; listed as purified peptide) | induction of bacteriocin (sakacin P) production [2] | induction of bacteriocin (sakacin P) production ([2]; listed as purified peptide) | inducing effects of the synthetic peptide compared with Bac+ culture supernatants and the purified peptide ([2]; synthetic peptide, in Lactobacillus sake LTH673) | detection of transcripts of the genes of FIG. 1 [3] | time until transcripts could be detected after adding the peptide [3] [min] | inducing activity after boiling ([4]; boiling for 10 minutes) | inducing activity after proteinase K treatment ([4]; culture medium treated with proteinase K) |
| --- | --- | --- | --- | --- | --- | --- | --- | --- | --- | --- | --- | --- | --- |
| KSSAYSLQMGATAIKQVKKLFKKWGW [26-residue inducing peptide] | gene expression can be induced | same inducing effects | – | – | – | – | – | – | – | – | – | – | – |
| MAGNSSNFIHKIKQIFTHR [19-residue peptide, purified or chemically synthesized] | – | – | restored | restored | resulted in the induction | resulted in the induction | restored | resulted in the induction | same inducing effects | several transcripts could be detected | ≤ 30 | not after boiling | lost |
